Experimental data published in PubChem BioAssay AID328 (DTP/NCI, 2004).
Where “and” joins values, the source holds several entries; their conditions need not be identical. Identical values can stand only once. Toxic doses and inconclusive results are not listed. The calls were made as follows: active = survival T/C of 150% or more; inactive = T/C below 125% in these data.

Test system: BDF1 mice, P388 leukemia ip, median survival T/C
Test: NCI In Vivo Anticancer Drug Screen. Data for tumor model P388 Leukemia (intraperitoneal) in B6D2F1 (BDF1) mice
Settings: endpoint: median survival time, higher = longer survival
Procedure, shortened: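 Compound-treated tumour-bearing mice were compared with vehicle-treated controls. Survival was recorded, and the value is the treated-group measurement divided by the control-group measurement (T/C).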

[1] = dose: 100.0 mg/kg/injection, schedule: Q01DX009 (ip), vehicle: Klucel (hydroxypropylcellulose) (HPC)
[2] = dose: 200.0 mg/kg/injection, schedule: Q01DX009 (ip), vehicle: Klucel (hydroxypropylcellulose) (HPC)
[3] = dose: 400.0 mg/kg/injection, schedule: Q01DX009 (ip), vehicle: Klucel (hydroxypropylcellulose) (HPC)
[4] = dose: 50.0 mg/kg/injection, schedule: Q01DX009 (ip), vehicle: saline with Tween-80
[5] = dose: 100.0 mg/kg/injection, schedule: Q01DX009 (ip), vehicle: saline with Tween-80
[6] = dose: 200.0 mg/kg/injection, schedule: Q01DX009 (ip), vehicle: saline with Tween-80
[7] = dose: 50.0 mg/kg/injection, schedule: Q04DX003 (ip), vehicle: saline with Tween-80
[8] = dose: 100.0 mg/kg/injection, schedule: Q04DX003 (ip), vehicle: saline with Tween-80
[9] = dose: 200.0 mg/kg/injection, schedule: Q04DX003 (ip), vehicle: saline with Tween-80
[10] = dose: 12.5 mg/kg/injection, schedule: Q01DX009 (ip), vehicle: saline with Tween-80
[11] = dose: 25.0 mg/kg/injection, schedule: Q01DX009 (ip), vehicle: saline with Tween-80

Measured: T/C

O=[N+]([O-])c1cc([N+](=O)[O-])c(Cl)cc1Cl
inactive: dose: 3.13 mg/kg/injection, schedule: Q01DX009 (ip), vehicle: Klucel (hydroxypropylcellulose) (HPC) 104 % of control | dose: 6.25 mg/kg/injection, schedule: Q01DX009 (ip), vehicle: Klucel (hydroxypropylcellulose) (HPC) 104 % of control | dose: 12.5 mg/kg/injection, schedule: Q01DX009 (ip), vehicle: Klucel (hydroxypropylcellulose) (HPC) 109 % of control | dose: 50.0 mg/kg/injection, schedule: Q04DX003 (ip), vehicle: Klucel (hydroxypropylcellulose) (HPC) 103 % of control | dose: 200.0 mg/kg/injection, schedule: Q04DX003 (ip), vehicle: Klucel (hydroxypropylcellulose) (HPC) 92 % of control

N#C/C(C(=N)c1ccccc1)=C1\SS/C(=C(\C#N)C(=N)c2ccccc2)S1
inactive: dose: 1.5 mg/kg/injection, schedule: Q01DX009 (ip), vehicle: saline with Tween-80 101 % of control

O=[N+]([O-])c1cccc(/C=C/c2ccccc2)c1
inactive: dose: 100.0 mg/kg/injection, schedule: Q01DX001 (ip), vehicle: Klucel (hydroxypropylcellulose) (HPC) 100 % of control | [1] 95 % of control | dose: 200.0 mg/kg/injection, schedule: Q01DX001 (ip), vehicle: Klucel (hydroxypropylcellulose) (HPC) 95 % of control | [2] 95 % of control | dose: 400.0 mg/kg/injection, schedule: Q01DX001 (ip), vehicle: Klucel (hydroxypropylcellulose) (HPC) 90 % of control | [3] 90 % of control

O=C1NNCc2c1oc1ccccc21
inactive: [4] 96 % of control | [5] 114 % of control | [6] 90 % of control

Nc1nc(=S)c2ncn(C3OC(COC(=O)c4ccc(Cl)cc4)C(OC(=O)c4ccc(Cl)cc4)C3OC(=O)c3ccc(Cl)cc3)c2[nH]1 (stereo not drawn)
inactive: dose: 132.0 mg/kg/injection, schedule: Q04DX003 (ip), vehicle: saline with Tween-80 118 % of control | [6] 100 % of control | dose: 300.0 mg/kg/injection, schedule: Q04DX003 (ip), vehicle: saline with Tween-80 122 % of control

CCCCCCCCCCC(C(=O)O)C1(C(=O)O)CCC(=O)O1 (stereo not drawn)
inactive: dose: 50.0 mg/kg/injection, schedule: Q01DX009 (ip), vehicle: Klucel (hydroxypropylcellulose) (HPC) 107 % of control | [1] 107 % of control | [2] 98 % of control

Cc1cc(NCCN(C(C)C)C(C)C)nc(/N=C(\N)Nc2ccc(Cl)c(C(F)(F)F)c2)n1
inactive: dose: 3.8 mg/kg/injection, schedule: Q04DX003 (ip), vehicle: Klucel (hydroxypropylcellulose) (HPC) 104 % of control | dose: 4.68 mg/kg/injection, schedule: Q01DX009 (ip), vehicle: Klucel (hydroxypropylcellulose) (HPC) 95 % of control | dose: 5.8 mg/kg/injection, schedule: Q04DX003 (ip), vehicle: Klucel (hydroxypropylcellulose) (HPC) 95 % of control | dose: 9.37 mg/kg/injection, schedule: Q01DX009 (ip), vehicle: Klucel (hydroxypropylcellulose) (HPC) 100 % of control | dose: 18.75 mg/kg/injection, schedule: Q01DX009 (ip), vehicle: Klucel (hydroxypropylcellulose) (HPC) 104 % of control | dose: 20.0 mg/kg/injection, schedule: Q04DX003 (ip), vehicle: Klucel (hydroxypropylcellulose) (HPC) 116 % of control | dose: 26.0 mg/kg/injection, schedule: Q01DX009 (ip), vehicle: Klucel (hydroxypropylcellulose) (HPC) 95 % of control | dose: 26.0 mg/kg/injection, schedule: Q04DX003 (ip), vehicle: Klucel (hydroxypropylcellulose) (HPC) 106 % of control | dose: 40.0 mg/kg/injection, schedule: Q04DX003 (ip), vehicle: Klucel (hydroxypropylcellulose) (HPC) 106 % of control and 116 % of control | dose: 60.0 mg/kg/injection, schedule: Q04DX003 (ip), vehicle: Klucel (hydroxypropylcellulose) (HPC) 123 % of control

NC(=S)S/C=C/C(=O)O
inactive: [4] 96 % of control | [7] 100 % of control | [5] 94 % of control | [8] 107 % of control | [6] 100 % of control | [9] 103 % of control | dose: 400.0 mg/kg/injection, schedule: Q04DX003 (ip), vehicle: saline with Tween-80 115 % of control

O=[N+]([O-])c1ccc(S(=O)(=O)N/N=C\c2ccc(Cl)c(Cl)c2)cc1
inactive: [10] 95 % of control | [11] 92 % of control | [4] 100 % of control

Cc1nnc2ccnn2c1C
inactive: dose: 1.56 mg/kg/injection, schedule: Q01DX009 (ip), vehicle: saline 108 % of control | dose: 3.13 mg/kg/injection, schedule: Q01DX009 (ip), vehicle: saline 102 % of control | dose: 6.25 mg/kg/injection, schedule: Q01DX009 (ip), vehicle: saline 108 % of control | dose: 12.5 mg/kg/injection, schedule: Q01DX009 (ip), vehicle: saline 100 % of control

CS(=O)CC(O)(c1ccccc1)c1ccco1 (stereo not drawn)
inactive: [4] 116 % of control | [5] 107 % of control | [6] 106 % of control

O=COCC(O)COC=O
inactive: dose: 50.0 mg/kg/injection, schedule: Q04DX003 (ip), vehicle: saline 103 % of control | dose: 100.0 mg/kg/injection, schedule: Q04DX003 (ip), vehicle: saline 112 % of control | dose: 200.0 mg/kg/injection, schedule: Q04DX003 (ip), vehicle: saline 112 % of control

CS(=O)(=O)Nc1ccc(NS(C)(=O)=O)cc1
inactive: dose: 100.0 mg/kg/injection, schedule: Q01DX001 (ip), vehicle: saline with Tween-80 112 % of control | dose: 200.0 mg/kg/injection, schedule: Q01DX001 (ip), vehicle: saline with Tween-80 100 % of control | dose: 400.0 mg/kg/injection, schedule: Q01DX001 (ip), vehicle: saline with Tween-80 100 % of control

Clc1[nH]nc2ccccc12
inactive: [10] 91 % of control | [11] 87 % of control | [4] 95 % of control | dose: 50.0 mg/kg/injection, schedule: Q04DX003 (ip), vehicle: saline sonified 90 % of control | [5] 100 % of control | dose: 100.0 mg/kg/injection, schedule: Q04DX003 (ip), vehicle: saline sonified 90 % of control | dose: 200.0 mg/kg/injection, schedule: Q04DX003 (ip), vehicle: saline sonified 90 % of control

CCOC(=O)CCC(NC(=O)Cc1ccc(NC(=O)C(F)(F)F)cc1)C(=O)OCC (stereo not drawn)
inactive: [1] 100 % of control | [2] 95 % of control | [3] 104 % of control

CCOC(=O)c1c(C)cc(C)nc1[S][Sn]([Cl])([Cl])[S]c1nc(C)cc(C)c1C(=O)OCC
inactive: [4] 99 % of control | [5] 107 % of control | [6] 106 % of control

Cc1onc(-c2ccccc2)c1NC(=O)OC(C)c1cccnc1 (stereo not drawn)
inactive: [4] 103 % of control | [5] 108 % of control | [6] 119 % of control

O=C(c1ccccc1)N1CC=Cc2ccccc21
inactive: [4] 105 % of control | [5] 100 % of control | [6] 105 % of control

CCCCCCCCCCCCOc1ccccc1
inactive: [7] 100 % of control | [8] 109 % of control | [9] 100 % of control

c1cc[c]([Sn]([c]2ccccc2)([c]2ccccc2)[n]2cncn2)cc1
inactive: dose: 3.12 mg/kg/injection, schedule: Q01DX009 (ip), vehicle: saline with Tween-80 106 % of control | dose: 6.25 mg/kg/injection, schedule: Q01DX009 (ip), vehicle: saline with Tween-80 106 % of control
